In patent US6503881B2 (priority 1996, dated 2003):
In brackets after ≈: the same amount, converted by molar mass. Read-outs that look alike come from different tables or passages of the source. Peptide text beside a SMILES is read from it.

Legend:
[1] = test system: microorganisms with acquired resistance
bacterial isolates = details: for FIC: Tobramycin + peptide
[2] = test system: inherently resistant microorganisms
[3] = S. haemolyticus SH8463, pair Erythromycin / MBI 31
[4] = S. haemolyticus SH8472, pair Erythromycin / MBI 31
[5] = S. haemolyticus SH8564, pair Erythromycin / MBI 31
[6] = S. haemolyticus SH8575, pair Erythromycin / MBI 31
[7] = peptide + Tobramycin, S. maltophilia SMA029
[8] = peptide + Tobramycin, S. maltophilia SMA030
[9] = S. maltophilia SMA018, pair Amikacin / MBI 11B16CN
[10] = S. maltophilia SMA022, pair Amikacin / MBI 11B16CN

## CC[C@H]1OC(=O)[C@H](C)[C@@H](O[C@H]2C[C@@](C)(OC)[C@@H](O)[C@H](C)O2)[C@H](C)[C@@H](O[C@@H]2O[C@H](C)C[C@H](N(C)C)[C@H]2O)[C@](C)(O)C[C@@H](C)C(=O)[C@H](C)[C@@H](O)[C@]1(C)O [Erythromycin, reference compound]
[1]; S. aureus SA7609, pair Erythromycin / MBI 26
  MIC comb.: 0.5 µg/mL (≈ 0.681 µM)
[1]; S. aureus SA7795, pair Erythromycin / MBI 26
  MIC comb.: 1 µg/mL (≈ 1.36 µM)
[1]; S. aureus SA7795, pair Erythromycin / MBI 31
  MIC comb.: 4 µg/mL (≈ 5.45 µM)
[1]; S. aureus SA7796, pair Erythromycin / MBI 26
  MIC comb.: 1 µg/mL (≈ 1.36 µM)
[1]; S. aureus SA7796, pair Erythromycin / MBI 31
  MIC comb.: 2 µg/mL (≈ 2.73 µM)
[1]; S. aureus SA7818, pair Erythromycin / MBI 31
  MIC comb.: 2 µg/mL (≈ 2.73 µM)
[1]; S. epidermidis SE8410, pair Erythromycin / MBI 26
  MIC comb.: 0.5 µg/mL (≈ 0.681 µM)
[1]; S. epidermidis SE8410, pair Erythromycin / MBI 31
  MIC comb.: 0.5 µg/mL (≈ 0.681 µM)
[1]; S. epidermidis SE8411, pair Erythromycin / MBI 26
  MIC comb.: 0.5 µg/mL (≈ 0.681 µM)
[1]; S. epidermidis SE8411, pair Erythromycin / MBI 31
  MIC comb.: 0.5 µg/mL (≈ 0.681 µM)
[1]; S. epidermidis SE8503, pair Erythromycin / MBI 26
  MIC comb.: 0.5 µg/mL (≈ 0.681 µM)
[1]; S. epidermidis SE8503, pair Erythromycin / MBI 31
  MIC comb.: 0.5 µg/mL (≈ 0.681 µM)
[1]; S. epidermidis SE8565, pair Erythromycin / MBI 26
  MIC comb.: 0.5 µg/mL (≈ 0.681 µM)
[1]; S. epidermidis SE8565, pair Erythromycin / MBI 31
  MIC comb.: 0.5 µg/mL (≈ 0.681 µM)
[1]; S. haemolyticus SH8463, pair Erythromycin / MBI 26
  MIC comb.: 0.5 µg/mL (≈ 0.681 µM)
[1]; [3]
  MIC comb.: 0.5 µg/mL (≈ 0.681 µM)
[1]; S. haemolyticus SH8472, pair Erythromycin / MBI 26
  MIC comb.: 0.5 µg/mL (≈ 0.681 µM)
[1]; [4]
  MIC comb.: 0.5 µg/mL (≈ 0.681 µM)
[1]; [5]
  MIC comb.: 2 µg/mL (≈ 2.73 µM)
[1]; S. haemolyticus SH8575, pair Erythromycin / MBI 26
  MIC comb.: 2 µg/mL (≈ 2.73 µM)
[1]; [6]
  MIC comb.: 2 µg/mL (≈ 2.73 µM)
[1]; S. haemolyticus SH8578, pair Erythromycin / MBI 26
  MIC comb.: 0.5 µg/mL (≈ 0.681 µM)
[1]; S. haemolyticus SH8578, pair Erythromycin / MBI 31
  MIC comb.: 0.5 µg/mL (≈ 0.681 µM)
[1]; S. haemolyticus SH8597, pair Erythromycin / MBI 26
  MIC comb.: 0.5 µg/mL (≈ 0.681 µM)

## CC[C@H](C)[C@H](NC(=O)[C@H](CC(C)C)NC(=O)[C@H](C)NC(=O)[C@@H]1CCCN1C(=O)[C@H](CC(C)C)NC(=O)[C@H](C)NC(=O)[C@@H](NC(=O)[C@@H](NC(=O)[C@@H](NC(=O)[C@@H](NC(=O)[C@H](CCCCN)NC(=O)[C@H](CCCCN)NC(=O)[C@H](CC(C)C)NC(=O)[C@@H](NC(=O)[C@H](CCCCN)NC(=O)[C@@H](NC(=O)[C@H](CC(C)C)NC(=O)[C@H](CC(N)=O)NC(=O)[C@H](CCCCN)NC(=O)[C@@H](NC(=O)[C@H](Cc1ccccc1)NC(=O)[C@H](CO)NC(=O)[C@H](CCCCN)NC(=O)[C@H](Cc1c[nH]c2ccccc12)NC(=O)[C@@H](N)CCCCN)[C@@H](C)CC)[C@@H](C)O)C(C)C)C(C)C)C(C)C)[C@@H](C)O)[C@@H](C)O)C(=O)N[C@@H](CO)C(=O)O [MBI 29A2, KWKSFIKNLTKVLKKVVTTALPALIS] (H-KWKSFIKNLTKVLKKVVTTALPALIS-OH; N-terminus and C-terminus assumed)
Bacterial isolates; P. aeruginosa PA24 (Ciprofloxacin section)
  Peptide MI Alone: 64 µg/mL
Bacterial isolates; S. aureus SA10 (Ciprofloxacin section)
  Peptide MI Alone: 4 µg/mL
Bacterial isolates; S. aureus SA93 (Ciprofloxacin section)
  Peptide MI Alone: 2 µg/mL

## G K P R P Y S P I P T S P R P I R Y [MBI 31]
[1]; S. aureus SA7796, pair Methicillin / MBI 31
  Peptide MIC: 16 µg/mL
[1]; S. aureus SA7797, pair Methicillin / MBI 31
  Peptide MIC: 16 µg/mL
[1]; S. aureus SA7823, pair Methicillin / MBI 31
  Peptide MIC: 0.5 µg/mL
[1]; S. aureus SA7834, pair Methicillin / MBI 31
  Peptide MIC: 32 µg/mL
[1]; S. aureus SA7835, pair Methicillin / MBI 31
  Peptide MIC: 16 µg/mL
[1]; [3]
  Peptide MIC: 0.5 µg/mL
[1]; [4]
  Peptide MIC: 0.5 µg/mL
[1]; [5]
  Peptide MIC: 0.5 µg/mL
[1]; [6]
  Peptide MIC: 0.5 µg/mL

## I L K K F P F F P F R R K [MBI 11A1CN]
bacteria; A. calcoaceticus AC002
  MIC: 16 µg/mL
bacteria; E. cloacae ECL007
  MIC: >128 µg/mL
bacteria; E. coli ECO002
  MIC: 32 µg/mL
bacteria; E. faecalis EFS002
  MIC: 32 µg/mL
bacteria; E. faecium EFM002
  MIC: 1 µg/mL
bacteria; H. influenzae HIN002
  MIC: >128 µg/mL
bacteria; K. pneumoniae KP002
  MIC: >128 µg/mL
bacteria; P. aeruginosa PA004
  MIC: >128 µg/mL
bacteria; P. vulgaris SBPV1
  MIC: >128 µg/mL
bacteria; S. aureus SA005
  MIC: 8 µg/mL
bacteria; S. epidermidis SE002
  MIC: 16 µg/mL
bacteria; S. maltophilia SMA002
  MIC: >128 µg/mL
bacteria; S. marcescens SBSM2
  MIC: >128 µg/mL
bacteria; S. pneumoniae SBSPN2
  MIC: >128 µg/mL
[1]; P. aeruginosa PA026
  Peptide MIC + Tobramycin: 0.125 µg/mL
[1]; S. aureus SA10
  Ciprofloxacin MIC + Peptide: 0.125 µg/mL
  Peptide MIC + Ciprofloxacin: 64 µg/mL
[1]; S. aureus SA25
  Ciprofloxacin MIC + Peptide: 0.125 µg/mL
[1]; S. maltophilia SMA030
  Peptide MIC + Tobramycin: 64 µg/mL
  Tobramycin MIC + Peptide: 2 µg/mL
[1]; peptide + Ciprofloxacin, S. aureus SA25
  FIC: 0.53
[1]; [7]
  FIC: 0.16
[1]; [8]
  FIC: 0.27

## I L K K W P W W P W R R [MBI 11G7CN]
Bacterial isolates; A. calcoaceticus 3
  Peptide MIC + Piperacillin: 2 µg/mL
  Peptide MIC Alone: 4 µg/mL
  Piperacillin MIC + Peptide: 4 µg/mL

## I L R R W P W W P W R R K [MBI 11B1CN]
bacteria; A. calcoaceticus AC001
  MIC: 32 µg/mL
bacteria; E. cloacae ECL007
  MIC: >128 µg/mL
bacteria; E. coli ECO003
  MIC: 8 µg/mL
bacteria; E. faecalis EFS004
  MIC: 8 µg/mL
bacteria; E. faecium EFM002
  MIC: 2 µg/mL
bacteria; K. pneumoniae KP002
  MIC: 64 µg/mL
bacteria; P. aeruginosa PA005
  MIC: >128 µg/mL
bacteria; S. aureus SA005
  MIC: 2 µg/mL
bacteria; S. epidermidis SE001
  MIC: 2 µg/mL
bacteria; S. maltophilia SMA001
  MIC: 64 µg/mL
bacteria; S. marcescens SMS004
  MIC: >128 µg/mL
[1]; E. faecalis EFS003
  Peptide MIC + Vancomycin: 32 µg/mL
  Vancomycin MIC + Peptide: 4 µg/mL
[1]; E. faecalis EFS003 (8. Vancomycin)
  Peptide MIC Alone: >128 µg/mL
[1]; E. faecalis EFS006
  Peptide MIC + Vancomycin: 0.25 µg/mL
  Vancomycin MIC + Peptide: 4 µg/mL
[1]; E. faecalis EFS006 (8. Vancomycin)
  Peptide MIC Alone: 128 µg/mL
[1]; E. faecalis EFS010
  Peptide MIC + Vancomycin: 8 µg/mL
  Vancomycin MIC + Peptide: 1 µg/mL
[1]; E. faecalis EFS010 (8. Vancomycin)
  Peptide MIC Alone: 128 µg/mL
[1]; E. faecalis EFS014
  Peptide MIC + Vancomycin: 2 µg/mL
  Vancomycin MIC + Peptide: 1 µg/mL
[1]; E. faecalis EFS014 (8. Vancomycin)
  Peptide MIC Alone: 4 µg/mL
[1]; E. faecium EFM004
  Peptide MIC + Vancomycin: 16 µg/mL
  Vancomycin MIC + Peptide: 0.5 µg/mL
[1]; E. faecium EFM004 (8. Vancomycin)
  Peptide MIC Alone: 32 µg/mL
[1]; E. faecium EFM007
  Peptide MIC + Vancomycin: 16 µg/mL
  Vancomycin MIC + Peptide: 4 µg/mL
[1]; E. faecium EFM007 (8. Vancomycin)
  Peptide MIC Alone: 64 µg/mL
[1]; E. faecium EFM009
  Peptide MIC + Vancomycin: 8 µg/mL
  Vancomycin MIC + Peptide: 4 µg/mL
[1]; E. faecium EFM009 (8. Vancomycin)
  Peptide MIC Alone: 64 µg/mL
[1]; peptide + Vancomycin, E. faecalis EFS003
  FIC: 0.63
[1]; peptide + Vancomycin, E. faecalis EFS006
  FIC: 0.50
[1]; peptide + Vancomycin, E. faecalis EFS010
  FIC: 0.13
[1]; peptide + Vancomycin, E. faecalis EFS014
  FIC: 0.51
[1]; peptide + Vancomycin, E. faecium EFM004
  FIC: 0.50
[1]; peptide + Vancomycin, E. faecium EFM007
  FIC: 0.28
[1]; peptide + Vancomycin, E. faecium EFM009
  FIC: 0.25

## ILRWPWWPWRRKIMILKKAGS [MBI 11B16CN]
bacteria; A. calcoaceticus AC002
  MIC: 4 µg/mL
bacteria; E. cloacae ECL007
  MIC: >128 µg/mL
bacteria; E. coli ECO005
  MIC: 16 µg/mL
bacteria; E. faecalis EFS001
  MIC: 2 µg/mL
bacteria; K. pneumoniae KP001
  MIC: 16 µg/mL
bacteria; P. aeruginosa PA004
  MIC: >128 µg/mL
bacteria; S. aureus SA093
  MIC: 2 µg/mL
bacteria; S. epidermidis SE010
  MIC: 4 µg/mL
bacteria; S. maltophilia SMA002
  MIC: 32 µg/mL
bacteria; S. marcescens SMS003
  MIC: >128 µg/mL
[2]; A baumannii ABI001, pair Amikacin / MBI 11B16CN
  MIC Alone: 32 µg/mL
[2]; [9]
  FIC: 0.31
  MIC Alone: 32 µg/mL
  MIC in combination: 8 µg/mL
[2]; [10]
  FIC: 0.14
  MIC Alone: >128 µg/mL
  MIC in combination: 32 µg/mL

## KWKLFIKKLTPAVKKVLLTGLPALIS [MBI 29F1]
[2]; S. aureus SA025 MRSA, pair Amikacin / MBI 29F1
  MIC Alone: 1 µg/mL

## R L A R I V V I R V A R [REWH 53A5CN]
Bacterial isolates; S. aureus SA014 MRSA
  Peptide MIC + Tobramycin: 8 µg/mL
  Peptide MIC Alone: 16 µg/mL
  Tobramycin MIC + Peptide: 0.125 µg/mL
  FIC: 0.50
Bacterial isolates; S. maltophilia SMA029
  Peptide MIC + Tobramycin: 16 µg/mL
  Peptide MIC Alone: >128 µg/mL
  Tobramycin MIC + Peptide: 4 µg/mL
  FIC: 0.08
Bacterial isolates; S. maltophilia SMA030
  Peptide MIC + Tobramycin: 32 µg/mL
  Peptide MIC Alone: >128 µg/mL
  Tobramycin MIC + Peptide: 0.25 µg/mL
  FIC: 0.13
[1]; S. maltophilia SMA029
  Peptide MIC + Tobramycin: 32 µg/mL
  Tobramycin MIC + Peptide: 0.25 µg/mL
[1]; S. maltophilia SMA029 (7. Tobramycin)
  Peptide MIC Alone: >128 µg/mL
[1]; S. maltophilia SMA030
  Peptide MIC + Tobramycin: 32 µg/mL
  Tobramycin MIC + Peptide: 0.25 µg/mL
[1]; S. maltophilia SMA030 (7. Tobramycin)
  Peptide MIC Alone: >128 µg/mL
[1]; [7]
  FIC: 0.13
[1]; [8]
  FIC: 0.13

## Teicoplanin [reference compound]
[2]; E. gallinarum 97046 VanC, pair Teicoplanin / MBI 26
  MIC Alone: 1 µg/mL
[2]; E. gallinarum 97047 VanC, pair Teicoplanin / MBI 26
  MIC Alone: 8 µg/mL
[2]; E. gallinarum 97049 VanC, pair Teicoplanin / MBI 26
  MIC Alone: 2 µg/mL
